Reference: ChEMBL document CHEMBL5375972, “Discovery of Novel 2,3-Dihydro-1H-indene-5-sulfonamide NLRP3 Inflammasome Inhibitors Targeting Colon as a Potential Therapy for Colitis” (J Med Chem, 2023)
The source made the active and inactive calls. The calls are words filed in the database; no cut-off is given here.

Tests used:
[1] = tested on: J774.A1; test: Inhibition of NF-kappaB pathway in mouse J774.A1 cells assessed as inhibition of LPS-induced TNF-alpha secretion at 0.1 to 30 uM pretreated for 1hr followed by LPS addition for 6 hrs by ELISA; assay type: cell-based; settings: dose 0.1-30 µM, time 7.0 hrs
[2] = Subacute toxicity in C57BL/6 mouse assessed as body weight gain at 100 mg/kg,ip administrated for 14 days; assay type: organism-based; settings: in vivo, 336 h, time 14 day
[3] = Acute toxicity in Kunming mouse model assessed as anorexia at 1000 mg/kg,IG administration for 7 days; assay type: organism-based; settings: in vivo, po, 168 h, time 7 day
[4] = tested on: Mus musculus; test: Anti-inflammatory activity in DSS-induced ulcerative colitis C57BL/6 mouse model assessed as decrease in ASC expression in colon at 10 mg/kg,ip administrated for 9 days by immunohistochemistry analysis; assay type: functional, organism-based; settings: time 9.0 day
[5] = Subacute toxicity in C57BL/6 mouse assessed as change in lung weight at 100 mg/kg,ip administrated for 14 days; assay type: organism-based; settings: in vivo, 336 h, time 14 day
[6] = Acute toxicity in Kunming mouse model assessed as lethargy at 1000 mg/kg,IG administration for 7 days; assay type: organism-based; settings: in vivo, po, 168 h, time 7 day

CCCNS(=O)(=O)c1ccc2c(c1)CC(N(Cc1cc(Cl)ccc1OCCOC)C(=O)c1cc3ccccc3o1)C2 (racemic)
inhibition [1]: inactive | Activity [2]: Toxic | Activity [3]: Non-Toxic | Activity [4]: Active | Activity [5]: Non-Toxic | Activity [6]: Non-Toxic
